Test results published in US7012144B2, “Quinolone carboxylic acid derivatives” (Korea Research Institute of Chemical Technology, priority 2001, dated 2006).
Converted amounts (≈) assume the structure as drawn. Like-named read-outs stand apart in the source and are kept apart here.

Key:
[1] = system: Staphylococcus aureus 503; assay: Antibacterial activity in vitro (MIC, two-fold dilution, Muller Hinton agar); type: cell-based; conditions: 10^7 CFU/ml, 37° C., 18 hours
Method: (§1) The MIC values were determined employing a two-fold dilution method and Muller Hinton agar medium. Each of the Hoechst 345 standard strains having the concentration of 10^7CFU (colony forming unit)/ml was inoculated onto the medium, and incubated at 37° C. for 18 hours.

Klebsiella oxytoca 1522E = assay: as above; type: cell-based; conditions: 10^7 CFU/ml, 37° C., 18 hours
Method: as §1

[2] = system: Staphylococcus aureus SG 511; assay: as above; type: cell-based; conditions: 37° C., 18 hours
Method: as §1

[3] = system: Staphylococcus aureus 285; assay: as above; type: cell-based
Method: as §1

[4] = system: Streptococcus faecium MD 8b; assay: as above; type: cell-based; conditions: 10^7 CFU/ml, 37° C., 18 hours
Method: as §1

Escherchia coli 078 = assay: as above; type: cell-based; conditions: 10^7 CFU/ml, 37° C., 18 hours
Method: as §1

Escherchia coli DC2 = assay: as above; type: cell-based
Method: as §1

[5] = system: Pseudomonas aeruginosa 1771M; assay: as above; type: cell-based
Method: as §1

[6] = system: Pseudomonas aeruginosa 9027; assay: as above; type: cell-based; conditions: 10^7 CFU/ml, 37° C., 18 hours
Method: as §1

[7] = system: Streptococcus pyogenes A 77; assay: as above; type: cell-based
Method: as §1

Klebsiella oxytoca 1082E = assay: as above; type: cell-based; conditions: 10^7 CFU/ml, 37° C., 18 hours
Method: as §1

Escherchia coli TEM = assay: as above; type: cell-based; conditions: 10^7 CFU/ml, 37° C., 18 hours
Method: as §1

[8] = system: Streptococcus pyogenes A 308; assay: as above; type: cell-based; conditions: 37° C., 18 hours
Method: as §1

[9] = system: Pseudomonas aeruginosa 1771; assay: as above; type: cell-based; conditions: 10^7 CFU/ml, 37° C., 18 hours
Method: as §1

[10] = system: Pseudomonas aeruginosa 1592E; assay: as above; type: cell-based; conditions: 10^7 CFU/ml, 37° C., 18 hours
Method: as §1

Salmonella typhymurium = assay: as above; type: cell-based; conditions: 10^7 CFU/ml, 37° C., 18 hours
Method: as §1

Escherchia coli DC0 = assay: as above; type: cell-based
Method: as §1

Escherchia coli 1507E = assay: as above; type: cell-based; conditions: 10^7 CFU/ml, 37° C., 18 hours
Method: as §1

[11] = system: calf thymus topoisomerase II; assay: Inhibition of the enzyme activity of topoisomerase II; type: biochemical; conditions: concentration to inhibit the enzyme activity of calf thymus topoisomerase II
Method: (§2) Selectivity indexes of the compounds of the present invention and control compounds were measured using gyrase purified from of E. coli and calf thymus topoisomerase II obtained from Topogen. Co.
(§3) The selectivity index (S.I.) was calculated by the equation 1. [formula] wherein, IC100, Topo II is the concentration of a compound to inhibit the enzyme activity of topoisomerase II and IC100, Gyrase is the concentration of a compound to inhibit the enzyme activity of gyrase of E. coli.

gyrase of E. coli = target: T1, gyrase of E. coli (Escherichia coli, UniProt P0AES4+P0AES6); assay: Inhibition of the enzyme activity of gyrase; type: biochemical; conditions: concentration to inhibit the enzyme activity of gyrase of E. coli
T1 construct: gyrase purified from of E. coli; host or cells: E. coli
Method: as §2, §3

[12] = system: Enterobacter cloacae 1321E; assay: Antibacterial activity in vitro (MIC, two-fold dilution, Muller Hinton agar); type: cell-based; conditions: 10^7 CFU/ml, 37° C., 18 hours
Method: as §1

Enterobacter cloacae P99 = assay: as above; type: cell-based; conditions: 10^7 CFU/ml, 37° C., 18 hours
Method: as §1

[13] = SG511, 10^7 CFU/ml, read-out: MIC
[14] = Enterococcus faecium, MD8B, read-out: MIC
[15] = Pseudomonas aeruginosa, 1771M, 18 h
[16] = A308, 10^7 CFU/ml, read-out: MIC
[17] = Staphylococcus aureus 285, 10^7 CFU/ml, 37° C., 18 hours
[18] = Escherchia coli DC2, 10^7 CFU/ml, 37° C., 18 hours
[19] = Pseudomonas aeruginosa 1771M, 10^7 CFU/ml, 37° C., 18 hours
[20] = Streptococcus pyogenes A 77, 10^7 CFU/ml, 37° C., 18 hours
[21] = Escherchia coli DC0, 10^7 CFU/ml, 37° C., 18 hours

T1 sequence (P0AES4 whole entry, one chain of several): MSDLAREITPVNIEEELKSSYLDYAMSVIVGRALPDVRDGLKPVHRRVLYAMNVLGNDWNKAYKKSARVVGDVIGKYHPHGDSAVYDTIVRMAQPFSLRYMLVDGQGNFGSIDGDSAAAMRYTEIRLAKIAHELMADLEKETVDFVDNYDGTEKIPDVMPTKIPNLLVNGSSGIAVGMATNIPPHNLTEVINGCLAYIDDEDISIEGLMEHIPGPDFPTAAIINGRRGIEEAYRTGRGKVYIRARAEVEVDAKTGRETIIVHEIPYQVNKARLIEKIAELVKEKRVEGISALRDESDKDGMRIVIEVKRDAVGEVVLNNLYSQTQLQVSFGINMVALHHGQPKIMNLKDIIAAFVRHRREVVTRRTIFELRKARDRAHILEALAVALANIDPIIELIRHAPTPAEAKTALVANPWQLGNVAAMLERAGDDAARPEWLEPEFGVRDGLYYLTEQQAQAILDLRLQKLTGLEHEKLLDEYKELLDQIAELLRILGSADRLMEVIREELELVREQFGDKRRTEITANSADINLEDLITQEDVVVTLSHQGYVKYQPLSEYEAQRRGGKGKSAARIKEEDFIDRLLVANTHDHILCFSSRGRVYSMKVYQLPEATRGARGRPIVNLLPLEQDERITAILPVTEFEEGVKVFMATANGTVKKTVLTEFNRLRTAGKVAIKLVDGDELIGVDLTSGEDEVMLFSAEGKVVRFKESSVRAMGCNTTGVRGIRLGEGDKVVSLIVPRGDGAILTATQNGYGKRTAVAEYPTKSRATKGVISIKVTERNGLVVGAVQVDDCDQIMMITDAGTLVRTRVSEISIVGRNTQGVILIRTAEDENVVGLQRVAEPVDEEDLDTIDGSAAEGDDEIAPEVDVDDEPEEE

Compound | MIC ([1]; read-out: MIC) [mg/L] | MIC (Klebsiella oxytoca 1522E; read-out: MIC) [mg/L] | MIC [2, 13] [mg/L] | MIC [4, 14] [mg/L] | MIC (Escherchia coli 078; read-out: MIC) [mg/L] | MIC [5, 15] [mg/L] | MIC ([6]; read-out: MIC) [mg/L] | MIC (Klebsiella oxytoca 1082E; read-out: MIC) [mg/L] | MIC (Escherchia coli TEM; read-out: MIC) [mg/L] | MIC [8, 16] [mg/L] | MIC ([9]; read-out: MIC) [mg/L] | MIC ([10]; read-out: MIC) [mg/L] | MIC (Salmonella typhymurium; read-out: MIC) [mg/L] | MIC (Escherchia coli DC0; 18 h) [mg/L] | MIC (Escherchia coli 1507E; read-out: MIC) [mg/L] | IC100, Topo II [11] | IC100, Gyrase (gyrase of E. coli) [µg/mL] | MIC [12] [mg/L] | MIC [1] [mg/L] | MIC (Klebsiella oxytoca 1522E) [mg/L] | further results
O=C(O)c1cn(C2CC2)c2cc(N3CCNCC3)c(F)cc2c1=O [Ciprofloxacin, 1-cyclopropyl-6-fluoro-7-(piperazin-1-yl)-4-oxoquinoline-3-carboxylic acid, reference compound] | 0.391 (≈ 1.18 µM) | 0.013 (≈ 0.0392 µM) | 0.195 (≈ 0.589 µM) | 0.391 (≈ 1.18 µM) | 0.004 (≈ 0.0121 µM) | 0.049 (≈ 0.148 µM) | 0.195 (≈ 0.589 µM) | < 0.002 | 0.007 (≈ 0.0211 µM) | 3.12 (≈ 9.43 µM) | 0.195 (≈ 0.589 µM) | 0.195 (≈ 0.589 µM) | 0.007 (≈ 0.0211 µM) | 0.195 (≈ 0.589 µM) | 0.007 (≈ 0.0211 µM) | 500 µg/mL | 0.5 |  |  |  | MIC ([3]; Staphylococcus aureus, 285, 18 h): 0.781 mg/L (≈ 2.36 µM); MIC (Escherchia coli DC2; 18 h): 0.049 mg/L (≈ 0.148 µM); MIC ([7]; Streptococcus pyogenes, A77, 18 h): 0.781 mg/L (≈ 2.36 µM)
COc1c(N2CCC(CN)(c3ccccn3)C2)c(F)cc2c(=O)c(C(=O)O)cn(C3CC3)c12 (stereo not shown) [Compound 3, 1-cyclopropyl-6-fluoro-8-methoxy-7-[{3-aminomethyl-3-(pyridin-2-yl)pyrrolidin}-1-yl]-4-oxo-1,4-dihydroquinolin-3-carboxylic acid] |  |  |  |  |  |  |  |  |  |  |  |  |  |  |  | 1,000 μg/ml | 0.2 | <0.002 | 0.007 (≈ 0.0155 µM) | 0.013 (≈ 0.0287 µM) | MIC ([2]; 10^7 CFU/ml): 0.007 mg/L (≈ 0.0155 µM); MIC [3, 17]: 0.013 mg/L (≈ 0.0287 µM); MIC [4]: 0.007 mg/L (≈ 0.0155 µM); MIC (Escherchia coli 078): <0.002 mg/L; MIC (Enterobacter cloacae P99): 0.007 mg/L (≈ 0.0155 µM); MIC (Escherchia coli DC2; [18]): 0.013 mg/L (≈ 0.0287 µM); MIC [5, 19]: 0.098 mg/L (≈ 0.217 µM); MIC [6]: 0.195 mg/L (≈ 0.431 µM); MIC [7, 20]: 0.007 mg/L (≈ 0.0155 µM); MIC (Klebsiella oxytoca 1082E): <0.002 mg/L; MIC (Escherchia coli TEM): 0.007 mg/L (≈ 0.0155 µM); MIC ([8]; 10^7 CFU/ml): 0.013 mg/L (≈ 0.0287 µM); MIC [9]: 0.098 mg/L (≈ 0.217 µM); MIC [10]: 0.195 mg/L (≈ 0.431 µM); MIC (Salmonella typhymurium): 0.007 mg/L (≈ 0.0155 µM); MIC (Escherchia coli DC0; [21]): 0.049 mg/L (≈ 0.108 µM); MIC (Escherchia coli 1507E): 0.007 mg/L (≈ 0.0155 µM)
COc1c(N2CCC(N)(c3ccncc3)C2)c(F)cc2c(=O)c(C(=O)O)cn(C3CC3)c12 (stereo not shown) [Compound 11, 1-cyclopropyl-6-fluoro-8-methoxy-7-[{3-amino-3-(pyridin-4-yl)pyrrolidin}-1-yl]-4-oxo-1,4-dihydroquinolin-3-carboxylic acid] |  |  |  |  |  |  |  |  |  |  |  |  |  |  |  | 1,000 μg/ml | 0.4 | 0.002 (≈ 0.00456 µM) | 0.007 (≈ 0.016 µM) | 0.013 (≈ 0.0296 µM) | MIC ([2]; 10^7 CFU/ml): 0.013 mg/L (≈ 0.0296 µM); MIC [3, 17]: 0.013 mg/L (≈ 0.0296 µM); MIC [4]: 0.025 mg/L (≈ 0.057 µM); MIC (Escherchia coli 078): <0.002 mg/L; MIC (Enterobacter cloacae P99): 0.004 mg/L (≈ 0.00912 µM); MIC (Escherchia coli DC2; [18]): 0.013 mg/L (≈ 0.0296 µM); MIC [5, 19]: 0.098 mg/L (≈ 0.224 µM); MIC [6]: 0.195 mg/L (≈ 0.445 µM); MIC [7, 20]: 0.013 mg/L (≈ 0.0296 µM); MIC (Klebsiella oxytoca 1082E): 0.002 mg/L (≈ 0.00456 µM); MIC (Escherchia coli TEM): 0.007 mg/L (≈ 0.016 µM); MIC ([8]; 10^7 CFU/ml): 0.025 mg/L (≈ 0.057 µM); MIC [9]: 0.195 mg/L (≈ 0.445 µM); MIC [10]: 0.195 mg/L (≈ 0.445 µM); MIC (Salmonella typhymurium): 0.007 mg/L (≈ 0.016 µM); MIC (Escherchia coli DC0; [21]): 0.049 mg/L (≈ 0.112 µM); MIC (Escherchia coli 1507E): 0.013 mg/L (≈ 0.0296 µM)
CC1CN(c2c(F)c(N)c3c(=O)c(C(=O)O)cn(C4CC4)c3c2F)CC(C)N1 (stereo not shown) [Sparfloxacin, 1-cyclopropyl-5-amino-6,8-difluoro-7-(3,5-dimethylpiperazin-1-yl)-4-oxoquinoline-3-carboxylic acid, reference compound] | 0.049 (≈ 0.125 µM) | 0.025 (≈ 0.0637 µM) | 0.098 (≈ 0.25 µM) | 0.391 (≈ 0.996 µM) | 0.004 (≈ 0.0102 µM) | 0.195 (≈ 0.497 µM) | 0.781 (≈ 1.99 µM) | < 0.002 | 0.013 (≈ 0.0331 µM) | 0.391 (≈ 0.996 µM) | 0.781 (≈ 1.99 µM) | 0.781 (≈ 1.99 µM) | 0.007 (≈ 0.0178 µM) | 0.195 (≈ 0.497 µM) | 0.025 (≈ 0.0637 µM) | 500 µg/mL | 1.0 |  |  |  | MIC ([12]; read-out: MIC): 0.004 mg/L (≈ 0.0102 µM); MIC ([3]; Staphylococcus aureus 285, 10^7 CFU/ml, 37° C., 18 hours, read-out: MIC): 0.049 mg/L (≈ 0.125 µM); MIC (Enterobacter cloacae P99; read-out: MIC): 0.007 mg/L (≈ 0.0178 µM); MIC ([7]; A77, Streptococcus pyogenes A 77, 10^7 CFU/ml, 37° C., 18 hours, read-out: MIC): 0.195 mg/L (≈ 0.497 µM)
